# Columns and labels:
# [1] = molecular target: T1, serum α1,3-L-fucosyltransferase (Homo sapiens, UniProt P51993); test: Assay of α1,3-fucosyltransferase with various synthetic acceptors, ovarian cancer sera as enzyme source; type: biochemical; details: for Relative Percent: 2'-methyl LacNAc = 100; for [14C] Fucose Incorporated (CPM): acceptor 0.3 mM, 37° C. 18 h
# T1 construct: Sera were collected from healthy females and ovarian cancer patients; from tissue; host or cells: blood serum of ovarian cancer patients and healthy females
# T1 sequence (P51993 35-359 limits assumed): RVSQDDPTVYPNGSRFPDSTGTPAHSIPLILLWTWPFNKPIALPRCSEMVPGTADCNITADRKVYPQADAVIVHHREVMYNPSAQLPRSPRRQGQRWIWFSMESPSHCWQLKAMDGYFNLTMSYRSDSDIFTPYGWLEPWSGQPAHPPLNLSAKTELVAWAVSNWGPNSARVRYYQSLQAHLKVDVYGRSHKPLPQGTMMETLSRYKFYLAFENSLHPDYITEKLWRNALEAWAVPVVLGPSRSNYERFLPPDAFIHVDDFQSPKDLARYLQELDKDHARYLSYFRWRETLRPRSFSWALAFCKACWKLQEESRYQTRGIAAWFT
# Protocol: Sera were collected from healthy females and ovarian cancer patients admitted to Roswell Park Cancer Institute in Buffalo, N.Y., USA. Ovarian tumor tissues were obtained during surgical procedures from patients with ovarian cancer. Both sera and tissues were stored frozen at -70° C. until use.
# (§1) An incubation mixture contained 50 mM HEPES-NaOH, pH 7.5, 5 mM MnC12, 7 mM ATP, 3 mM NaN3, the acceptor 0.3 mM (for serum enzyme) or 3.0 mM (for tumor enzyme), 0.125 μCi of GDP-[U-^14 C] Fuc (Sp. Act. 216 mCi/mmol) and enzyme in a total volume of 0.10 ml; the control incubation mixture had everything except the acceptor. At the end of incubation at 37° C. for 18 h, the mixture was diluted with 1 ml water and passed through Dowex-1-C1 column (1 ml in a Pasteur pipet). The column was washed twice with 1 ml water; the breakthrough and wash, which contained the [^14 C] fucosylated neutral acceptor, were collected together in a scintillation vial and counted for radioactivity using the scintillation coctail 3a70 (Research Products International, Mount Prospects, Ill.) and Beckman LS9000. The Dowex column was then eluted successively with 3 ml each of 0.1M and 0.2M NaCl; these eluates which contained the [^14 C] fucosylated sulfated acceptors, were counted for radioactivity as before. Corrections were made by subtracting the radioactivity in the water and NaCl eluates of the control incubation mixture from the corresponding test fractions. The duplicate runs of samples gave almost identical values, the difference being <5%.
# The activity of serum α1,3-fucosyltransferase was measured with the specific substrate 2'-methyl LacNAc and compared with the ability of several other synthetic substrates to act as an acceptor of fucose.
# When the structure of the acceptor 2'-methyl LacNAc was modified by replacing the methyl group with sulfate group in C-2', 3', 6' or 6 position and tested their ability to act as the acceptor of fucose, the following novel findings emerged. […] The β-benzyl glycoside of 3' sulfo LacNAc was quite active (168.4%) but less than the parent compound.
# [2] = tested on: α1,3-L-fucosyltransferase of the soluble fraction of human ovarian tumor; test: Assay of α1,3-fucosyltransferase with synthetic acceptors, partially purified enzyme of ovarian tumor soluble fraction; type: biochemical; details: for [14C] Fucose Incorporated (CPM): acceptor 3.0 mM, 37° C. 18 h
# Protocol: as §1
# As shown in the scheme set forth in FIG. 2, the α-L-fucosidase-free extract of the tissue (40 g), after concentration by 80% (NH4)2 SO4 precipitation was fractionated on bovine IgG glycopep-Sepharose in batches of 25 ml. After washing the column with the equilibration buffer, the bound enzyme was eluted with 1 M NaCl in the same buffer. The protein positive fractions were pooled and processed as shown in the scheme 2.0 ml of the above preparation was loaded on a Sephacryl S-200 column (Superfine:2.6 cm×88.0 cm) equilibrated at 4° C. with 50 mM Tris-HC1, pH 7.0 containing 0.15M NaCl and 0.1% Triton X-100 and eluted with the same buffer. Fractions of 3.0 ml were collected. The fucosyltransferase activity was located in the effluent fractions, by assaying first every 5th fraction and then obtaining the activity profile by assaying the alternate fractions in that range, using 2'-fucosyl LacNAc as the acceptor. […] Its elution position, which is slightly later than BSA, run separately on the same column, indicates its molecular weight as <67,000 daltons. […] The enzyme has been purified 66 fold over the soluble extract with a recovery of 6.2%. The enzyme at this stage lost its activity either kept frozen at -20° C. or left at 4° C. for more than a week. However, the enzyme at the end of the previous step was fairly stable for at least two months at 4° C. So this preparation of enzyme was used in acceptor ability comparison studies.
# When α1,3-fucosyltransferase activity of the partially purified enzyme preparation from the soluble portion of ovarian tumor was measured and compared with the activity of other acceptors, the following results were obtained. 2'-methyl LacNAc, LacNAc and Galβ1, 3GlcNAc were respectively 100.0%, 60.6% and 565.5% active, indicating the presence of both α1,3 and α1,4 fucosyltransferase activities in this preparation.
# [3] = tested on: α1,3-L-fucosyltransferase of the particulate fraction of ovarian tumor; test: Assay of α1,3-fucosyltransferase with synthetic acceptors, ovarian tumor particulate fraction; type: biochemical, human; details: for Relative Percent: 2'-methyl LacNAc = 100; for [14C] Fucose Incorporated (CPM): acceptor 3.0 mM, 37° C. 18 h
# Protocol: FIG. 2 The scheme for the preparation of the particulate and soluble fractions of human ovarian tumor.
# as §1
# This finding is quite different from what we found with the soluble fraction, where α1,4-fucosyltransferase activity seems to be greater than α1,3-fucosyltransferase activity. […] The different nature of the above enzymes was made further clear, when sulfated derivatives of LacNAc was tested as acceptors.
Compound,Relative Percent [1],[14C] Fucose Incorporated (CPM) [1],Relative Percent ([2]; 2'-methyl LacNAc = 100),[14C] Fucose Incorporated (CPM) [2],Relative Percent [3],[14C] Fucose Incorporated (CPM) [3],"Relative Percent ([2]; 2'-methyl LacNAc = 100, listed as 2' sulfo LacNAc)","Relative Percent ([2]; 2'-methyl LacNAc = 100, listed as 2' sulfo-LacNAc)"
"CC(=O)N[C@H]1C(O)O[C@H](CO)[C@@H](O[C@@H]2O[C@H](CO)[C@H](O)[C@H](O)[C@H]2O[C@@H]2O[C@@H](C)[C@@H](O)[C@@H](O)[C@@H]2O)[C@@H]1O (stereo partly shown) [2'-Fucosyl LacNAc, 2'-Fucosyl N-acetyllactosamine]",253.1%,4379 CPM,436.1%,32235 CPM,144.7%,69824 CPM,–,–
CC(=O)N[C@H]1[C@H](OCc2ccccc2)O[C@H](CO)[C@@H](O[C@@H]2O[C@H](CO)[C@H](O)[C@H](O)[C@H]2O[C@@H]2O[C@@H](C)[C@@H](O)[C@@H](O)[C@@H]2O)[C@@H]1O [2'-Fucosyl LacNAcβ-O--Bn],425.0%,7352 CPM,373.0%,27571 CPM,174.0%,83975 CPM,–,–
CC(=O)N[C@H]1C(O)O[C@H](CO)[C@@H](O[C@@H]2O[C@H](CO)[C@H](O)[C@H](O)[C@H]2OS(=O)(=O)O)[C@@H]1O (stereo partly shown) [2'-Sulfo LacNAc],22.0%,380 CPM,32.7%,2414 CPM,9.8%,4718 CPM,33%,32.7%
CO[C@H]1[C@H](O[C@H]2[C@H](O)[C@@H](NC(C)=O)[C@H](OCc3ccccc3)O[C@@H]2CO)O[C@H](CO)[C@H](O)[C@@H]1O [2'-methyl LacNAcβ-O--Bn],307.9%,5326 CPM,113.2%,8367 CPM,149.2%,71989 CPM,–,–
"CC(=O)N[C@H]1[C@H](OCc2ccccc2)O[C@H](CO)[C@@H](O[C@@H]2O[C@H](CO)[C@H](O)[C@H](OS(=O)(=O)O)[C@H]2O)[C@@H]1O [3'-Sulfo LacNAcβ-O--Bn, Benzyl 4-0-(sodium β-D-Galactopyranosyl 3-Sulfate)-2-acetamido-2-deoxy-β-D-Glucopyranoside]",168.4%,2913 CPM,183.8%,13585 CPM,33.3%,16062 CPM,–,–
CC(=O)N[C@H]1C(O)O[C@H](CO)[C@@H](O[C@@H]2O[C@H](CO)[C@H](O)[C@H](O)[C@H]2O)[C@@H]1O[C@@H]1O[C@@H](C)[C@@H](O)[C@@H](O)[C@@H]1O (stereo partly shown) [3-Fucosyl LacNAc],4.7%,82 CPM,1.9%,144 CPM,3.7%,1801 CPM,–,–
"CC(=O)N[C@H]1[C@@H](Oc2ccccc2[N+](=O)[O-])O[C@H](CO[C@@H]2O[C@H](CO)[C@@H](O)[C@H](O)[C@H]2NC(C)=O)[C@H](O)[C@@H]1O [G1cNAcβ1,6Ga1NAcα-O--ONp]",9.5%,164 CPM,0%,0 CPM,–,–,–,–
"CO[C@@H]1O[C@H](CO)[C@H](O)[C@H](O[C@@H]2O[C@H](CO)[C@@H](O)[C@H](O[C@@H]3O[C@H](CO)[C@H](O)[C@H](O)[C@H]3O)[C@H]2NC(C)=O)[C@H]1O [Ga1β1,3G1cNAcβ1,3Ga1β-O--Me]",42.7%,739 CPM,–,–,42.6%,20559 CPM,–,–

# Reference: patent US5620864A, “Acceptor for fucosyl transferase” (Health Research, Inc., priority 1992, dated 1997)
